Values of other authors in patent publication US4361703A, “Para-amino(or nitro)phenyl N-acetylaminothioalkanoates” (priority 1977, dated 1982).

Experiments:
mice = conditions: mouse, in vivo; cited from earlier work
death and liver injury = conditions: cited from earlier work
[1] = tested on: lethal and hepatotoxic effects of paracetamol overdosage; conditions: cited from earlier work

For `CC(=O)N[C@@H](CS)C(=O)O` [N-acetylcysteine], which 48 hour survival (mice) is on record?
The 48 hour survival was “significantly improved 48 hour survival in mice”.

Which “effect of methionine added to oral paracetamol dose” value (death and liver injury) does the source give for `CSCC[C@H](N)C(=O)O` [methionine] here?
Its value is “protects against death and liver injury”.

What about the “effect of methionine combined with paracetamol” value [1] of the same compound?
Its value is “greatly reducing the lethal and hepatotoxic effects of paracetamol overdosage”.
